Test results: patent publication US9175003B2, “Substituted azoanthracene derivatives and intermediates for preparation thereof” (TransTech Pharma, LLC, priority 2009, dated 2015)

Each compound was assayed against human GLP-1 receptor (Homo sapiens (Human), UniProt P43220). Conditions: read-out: Mean EC50; cAMP, HTRF detection, 30 min at 37° C., HEK-293 cells expressing cloned human GLP-1 receptor.
Sequence of human GLP-1 receptor (P43220 24-463): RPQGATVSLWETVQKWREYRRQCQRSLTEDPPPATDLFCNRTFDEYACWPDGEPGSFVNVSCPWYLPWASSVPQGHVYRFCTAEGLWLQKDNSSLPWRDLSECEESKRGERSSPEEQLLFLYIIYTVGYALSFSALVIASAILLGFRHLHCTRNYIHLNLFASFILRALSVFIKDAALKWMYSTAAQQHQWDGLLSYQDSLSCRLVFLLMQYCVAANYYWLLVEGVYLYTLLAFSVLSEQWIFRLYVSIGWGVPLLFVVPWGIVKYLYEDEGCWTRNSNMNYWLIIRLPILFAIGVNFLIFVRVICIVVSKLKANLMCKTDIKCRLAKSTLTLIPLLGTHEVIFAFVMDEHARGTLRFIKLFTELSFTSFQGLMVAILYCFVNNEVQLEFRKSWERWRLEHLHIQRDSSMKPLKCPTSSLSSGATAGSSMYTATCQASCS
Experimental: Following overnight incubation of cells, media was removed, and compounds (at concentrations ranging from 0.0001 to 100 μM) were added to monolayer cells in Iscove's modified dulbecco's medium (IMDM), 100 μM RO 20-1724 PDE inhibitor, 0.1% BSA, 2% DMSO in a final volume of 100 μL, and incubated for 30 min at 37° C. […] Alternatively, cells were harvested and combined with compounds in suspension using the buffer and protocol described above. cAMP was quantified using a homogenous time-resolved fluorescence detection system (cAMP dynamic, CIS bio International).

EC50 [nM]	SMILES
34	CC[C@@H](c1ccccc1)N1Cc2cc3c(cc2C[C@H]1C(=O)N[C@@H](Cc1ccc(-c2ccnc(CF)c2)cc1)C(=O)O)OC[C@H](c1ccc(OCc2ccc(Cl)c(Cl)c2)cc1)O3 [Example 212, (S)-2-{[(3S,8S)-3-[4-(3,4-Dichloro-benzyloxy)-phenyl]-7-((S)-1-phenyl-propyl)-2,3,6,7,8,9-hexahydro-[1,4]dioxino[2,3-g]isoquinoline-8-carbonyl]-amino}-3-[4-(2-fluoromethyl-pyridin-4-yl)-phenyl]-propionic acid]
17	Cc1nc(C(=O)N2Cc3cc4c(cc3C[C@H]2C(=O)N[C@@H](Cc2ccc(-c3ccnc(C)c3C)cc2)C(=O)O)OC[C@H](c2ccc(OCc3ccc(Cl)c(Cl)c3)cc2)O4)c(C)o1 [Example 216, (S)-2-{[(3S,8S)-3-[4-(3,4-Dichloro-benzyloxy)-phenyl]-7-(2,5-dimethyl-oxazole-4-carbonyl)-2,3,6,7,8,9-hexahydro-[1,4]dioxino[2,3-g]isoquinoline-8-carbonyl]-amino}-3-[4-(2,3-dimethyl-pyridin-4-yl)-phenyl]-propionic acid]
24	Cc1nc(C(=O)N2Cc3cc4c(cc3C[C@H]2C(=O)N[C@@H](Cc2ccc(-c3ccnc(C)c3C)cc2)C(=O)O)OC[C@H](c2ccc(OCc3ccc(C)c(C)c3)cc2)O4)c(C)o1 [Example 217, (S)-2-{[(3S,8S)-3-[4-(3,4-Dimethyl-benzyloxy)-phenyl]-7-(2,5-dimethyl-oxazole-4-carbonyl)-2,3,6,7,8,9-hexahydro-[1,4]dioxino[2,3-g]isoquinoline-8-carbonyl]-amino}-3-[4-(2,3-dimethyl-pyridin-4-yl)-phenyl]-propionic acid]
75	Cc1nc(C(=O)N2Cc3cc4c(cc3C[C@H]2C(=O)N[C@@H](Cc2ccc(-c3ccnc(C)c3C)cc2)C(=O)O)OC[C@H](c2ccc(OC[C@H]3CC[C@H](C)CC3)cc2)O4)c(C)o1 [Example 222, (S)-2-({(3S,8S)-7-(2,5-Dimethyl-oxazole-4-carbonyl)-3-[4-(trans-4-methyl-cyclohexyl-methoxy)-phenyl]-2,3,6,7,8,9-hexahydro-[1,4]dioxino[2,3-g]isoquinoline-8-carbonyl}-amino)-3-[4-(2,3-dimethyl-pyridin-4-yl)-phenyl]-propionic acid]
176	Cc1nc(C(=O)N2Cc3cc4c(cc3C[C@H]2C(=O)N[C@@H](Cc2ccc(-c3ccnc(C)c3C)cc2)C(=O)O)OC[C@H](c2ccc(OCC3CCC(F)(F)CC3)cc2)O4)c(C)o1 [Example 223, (S)-2-{[(3S,8S)-3-[4-(4,4-Difluoro-cyclohexylmethoxy)-phenyl]-7-(2,5-dimethyl-oxazole-4-carbonyl)-2,3,6,7,8,9-hexahydro-[1,4]dioxino[2,3-g]isoquinoline-8-carbonyl]-amino}-3-[4-(2,3-dimethyl-pyridin-4-yl)-phenyl]propionic acid]
183	Cc1nc(C(=O)N2Cc3cc4c(cc3C[C@H]2C(=O)N[C@@H](Cc2ccc(-c3ccnc(C)c3C)cc2)C(=O)O)OC[C@H](c2ccc(OCC3CCC(C(F)(F)F)CC3)cc2)O4)c(C)o1 (stereo partly drawn) [Example 225, (S)-2-({(3S,8S)-7-(2,5-Dimethyl-oxazole-4-carbonyl)-3-[4-(4-trifluoromethyl-cyclohexylmethoxy)-phenyl]-2,3,6,7,8,9-hexahydro-[1,4]dioxino[2,3-g]isoquinoline-8-carbonyl}-amino)-3-[4-(2,3-dimethyl-pyridin-4-yl)-phenyl]-propionic acid]
22	Cc1nccc(-c2ccc(C[C@H](NC(=O)[C@@H]3Cc4cc5c(cc4CN3Cc3ncccc3F)O[C@@H](c3ccc(OCc4ccc(Cl)c(Cl)c4)cc3)CO5)C(=O)O)cc2)c1C [Example 228, (S)-2-{[(3S,8S)-3-[4-(3,4-Dichloro-benzyloxy)-phenyl]-7-(3-fluoro-pyridin-2-ylmethyl)-2,3,6,7,8,9-hexahydro-[1,4]dioxino[2,3-g]isoquinoline-8-carbonyl]-amino}-3-[4-(2,3-dimethyl-pyridin-4-yl)-phenyl]-propionic acid]
